Tests used:
[1] = target: T1, soybean lipoxygenase (LOX, type I-B) immobilized in crosslinked phyllosilicate (TMOS-crosslinked montmorillonite) (Glycine max, UniProt P08170); assay: LOX oxidation of linoleic acid, hydroperoxide (HPOD) formation, immobilized enzyme; format: biochemical; conditions: substrate linoleic acid 0-20 μmoles; Lineweaver-Burk plot; LOX immobilized in crosslinked phyllosilicates
T1 construct: purchased Sigma, St. Louis, Mo
T1 sequence (P08170 1-839): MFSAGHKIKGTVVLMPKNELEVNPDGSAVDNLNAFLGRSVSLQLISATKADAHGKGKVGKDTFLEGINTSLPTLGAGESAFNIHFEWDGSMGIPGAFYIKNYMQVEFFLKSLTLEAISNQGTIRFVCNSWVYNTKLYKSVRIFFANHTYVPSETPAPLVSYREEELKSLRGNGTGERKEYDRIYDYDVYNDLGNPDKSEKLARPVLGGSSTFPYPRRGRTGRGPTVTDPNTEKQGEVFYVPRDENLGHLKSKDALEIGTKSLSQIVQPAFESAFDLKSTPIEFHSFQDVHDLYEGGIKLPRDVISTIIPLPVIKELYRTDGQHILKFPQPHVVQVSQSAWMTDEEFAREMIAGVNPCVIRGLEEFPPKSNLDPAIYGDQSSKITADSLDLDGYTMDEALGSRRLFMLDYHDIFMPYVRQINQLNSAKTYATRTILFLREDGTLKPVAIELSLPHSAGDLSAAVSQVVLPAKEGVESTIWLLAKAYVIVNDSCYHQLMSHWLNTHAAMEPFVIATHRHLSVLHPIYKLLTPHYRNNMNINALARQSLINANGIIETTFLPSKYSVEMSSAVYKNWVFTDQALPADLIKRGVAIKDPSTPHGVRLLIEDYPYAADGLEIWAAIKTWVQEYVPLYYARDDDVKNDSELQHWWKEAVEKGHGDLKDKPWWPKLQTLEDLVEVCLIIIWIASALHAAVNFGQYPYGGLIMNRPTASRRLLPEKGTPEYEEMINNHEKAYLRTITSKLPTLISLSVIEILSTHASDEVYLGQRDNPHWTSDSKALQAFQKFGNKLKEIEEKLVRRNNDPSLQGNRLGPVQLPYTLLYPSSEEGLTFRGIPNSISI
Method: Measurement of Enzymatic Activity. The activity of the immobilized lipoxygenase was assayed by measurement of hydroperoxide formation (Parra-Diaz, D. et al. [1993] supra). An aliquot of the substrate (5 μmoles of linoleic acid) dissolved in methylene chloride was placed in a 10 mL flask and evaporated to dryness under a stream of nitrogen. The reaction medium containing 0.2 mL of 100 mM deoxychlorate (DOC) and 1.8 mL of sodium borate buffer (0.2 M, pH 9.0) was added to the substrate, and the mixture was then shaken at 250 rpm for 0.5 h at 15° C. The reaction was initiated by adding a suitable amount (approximately 0.15 mg) free or immobilized LOX. Oxidation was conducted at 15° C. with agitation at 250 rpm for two hours. The reaction was quenched by adding 400 μL of 1 M citric add. Linoleic acid hydroperoxide was isolated by extracting the reaction mixture twice with 2 mL chloroform:methanol (2/1, v/v). After removing the solvent under a stream of nitrogen, the hydroperoxide was redissolved in 3 mL ethanol. The amount of hydroperoxide was determined spectrophotometrically by the xylenol orange method (Jiang, T.-Y. et al. [1991] Lipids 26:853-856). […] All results were corrected by subtracting the reading from controls without enzymes. […]
Effect of substrate concentration. The rate of hydroperoxide (HPOD) formation was measured at linoleic acid concentrations ranging from 0-20 μmoles. […]

[2] = target: T2, free soybean lipoxygenase (LOX, type I-B) (Glycine max, UniProt P08170); assay: LOX oxidation of linoleic acid, hydroperoxide (HPOD) formation, free enzyme; format: biochemical; conditions: substrate linoleic acid; free LOX under similar conditions
T2 sequence (P08170 1-839): T1 sequence (P08170 1-839)
Method: Measurement of Enzymatic Activity. The activity of the immobilized lipoxygenase was assayed by measurement of hydroperoxide formation (Parra-Diaz, D. et al. [1993] supra). An aliquot of the substrate (5 μmoles of linoleic acid) dissolved in methylene chloride was placed in a 10 mL flask and evaporated to dryness under a stream of nitrogen. The reaction medium containing 0.2 mL of 100 mM deoxychlorate (DOC) and 1.8 mL of sodium borate buffer (0.2 M, pH 9.0) was added to the substrate, and the mixture was then shaken at 250 rpm for 0.5 h at 15° C. The reaction was initiated by adding a suitable amount (approximately 0.15 mg) free or immobilized LOX. Oxidation was conducted at 15° C. with agitation at 250 rpm for two hours. The reaction was quenched by adding 400 μL of 1 M citric add. Linoleic acid hydroperoxide was isolated by extracting the reaction mixture twice with 2 mL chloroform:methanol (2/1, v/v). After removing the solvent under a stream of nitrogen, the hydroperoxide was redissolved in 3 mL ethanol. The amount of hydroperoxide was determined spectrophotometrically by the xylenol orange method (Jiang, T.-Y. et al. [1991] Lipids 26:853-856). Standards were prepared by diluting a commercial cumene peroxide. […]

SMILES: CCCCC/C=C\C/C=C\CCCCCCCC(=O)O [linoleic acid]
- Km [1]: 1.7 mM
- Vmax [1]: 0.023 µmol/min
- Km [2]: 2.5 mM
- Vmax [2]: 0.056 mol/min
